Results reported in ChEMBL document CHEMBL1201862, “PubChem BioAssay data set” (2004).
Calls of active or inactive are those of the source. Rule as the data show it: actives have a measured IC50 and inactives only a lower limit.

Experiments:
Type in all cases: functional
[1] = target: T1, Sentrin-specific protease 7 (Homo sapiens, UniProt Q9BQF6);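 also: Luminescence-based dose-response confirmation of ultra-high-throughput screening hits, measuring inhibition of SENP7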
T1 sequence (Q9BQF6 whole entry): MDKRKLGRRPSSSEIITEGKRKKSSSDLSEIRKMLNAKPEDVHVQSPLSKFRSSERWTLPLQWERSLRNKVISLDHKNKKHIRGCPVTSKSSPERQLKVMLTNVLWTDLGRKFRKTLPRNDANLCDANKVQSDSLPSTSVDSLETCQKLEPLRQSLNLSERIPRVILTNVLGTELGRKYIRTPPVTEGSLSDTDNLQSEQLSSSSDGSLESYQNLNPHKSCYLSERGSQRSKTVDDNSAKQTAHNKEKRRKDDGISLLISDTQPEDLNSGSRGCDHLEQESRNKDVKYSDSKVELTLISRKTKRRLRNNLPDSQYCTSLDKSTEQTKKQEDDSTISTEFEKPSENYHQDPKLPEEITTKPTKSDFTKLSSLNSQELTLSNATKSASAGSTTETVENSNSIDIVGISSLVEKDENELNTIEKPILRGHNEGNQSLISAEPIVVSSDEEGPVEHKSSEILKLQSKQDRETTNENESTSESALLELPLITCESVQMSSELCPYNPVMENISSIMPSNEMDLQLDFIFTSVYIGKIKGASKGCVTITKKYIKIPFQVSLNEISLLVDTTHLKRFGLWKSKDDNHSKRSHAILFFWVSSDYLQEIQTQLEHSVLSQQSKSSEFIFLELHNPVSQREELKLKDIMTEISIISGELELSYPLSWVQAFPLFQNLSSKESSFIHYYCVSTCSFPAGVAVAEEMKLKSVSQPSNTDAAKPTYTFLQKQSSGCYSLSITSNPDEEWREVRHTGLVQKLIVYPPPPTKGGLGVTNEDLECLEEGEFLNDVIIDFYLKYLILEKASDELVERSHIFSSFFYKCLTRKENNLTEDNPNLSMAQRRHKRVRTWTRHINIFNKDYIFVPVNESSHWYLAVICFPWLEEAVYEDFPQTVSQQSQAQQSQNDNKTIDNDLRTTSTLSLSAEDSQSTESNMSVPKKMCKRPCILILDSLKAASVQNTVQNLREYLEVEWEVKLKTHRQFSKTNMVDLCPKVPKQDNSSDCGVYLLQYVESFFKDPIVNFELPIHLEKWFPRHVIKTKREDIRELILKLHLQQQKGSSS

[2] = target: T2, Sentrin-specific protease 6 (Homo sapiens, UniProt Q9GZR1);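 also: Luminescence-based dose-response confirmatory assay of SENP6 inhibition, following up an ultra-high-throughput screen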
T2 sequence (Q9GZR1 whole entry): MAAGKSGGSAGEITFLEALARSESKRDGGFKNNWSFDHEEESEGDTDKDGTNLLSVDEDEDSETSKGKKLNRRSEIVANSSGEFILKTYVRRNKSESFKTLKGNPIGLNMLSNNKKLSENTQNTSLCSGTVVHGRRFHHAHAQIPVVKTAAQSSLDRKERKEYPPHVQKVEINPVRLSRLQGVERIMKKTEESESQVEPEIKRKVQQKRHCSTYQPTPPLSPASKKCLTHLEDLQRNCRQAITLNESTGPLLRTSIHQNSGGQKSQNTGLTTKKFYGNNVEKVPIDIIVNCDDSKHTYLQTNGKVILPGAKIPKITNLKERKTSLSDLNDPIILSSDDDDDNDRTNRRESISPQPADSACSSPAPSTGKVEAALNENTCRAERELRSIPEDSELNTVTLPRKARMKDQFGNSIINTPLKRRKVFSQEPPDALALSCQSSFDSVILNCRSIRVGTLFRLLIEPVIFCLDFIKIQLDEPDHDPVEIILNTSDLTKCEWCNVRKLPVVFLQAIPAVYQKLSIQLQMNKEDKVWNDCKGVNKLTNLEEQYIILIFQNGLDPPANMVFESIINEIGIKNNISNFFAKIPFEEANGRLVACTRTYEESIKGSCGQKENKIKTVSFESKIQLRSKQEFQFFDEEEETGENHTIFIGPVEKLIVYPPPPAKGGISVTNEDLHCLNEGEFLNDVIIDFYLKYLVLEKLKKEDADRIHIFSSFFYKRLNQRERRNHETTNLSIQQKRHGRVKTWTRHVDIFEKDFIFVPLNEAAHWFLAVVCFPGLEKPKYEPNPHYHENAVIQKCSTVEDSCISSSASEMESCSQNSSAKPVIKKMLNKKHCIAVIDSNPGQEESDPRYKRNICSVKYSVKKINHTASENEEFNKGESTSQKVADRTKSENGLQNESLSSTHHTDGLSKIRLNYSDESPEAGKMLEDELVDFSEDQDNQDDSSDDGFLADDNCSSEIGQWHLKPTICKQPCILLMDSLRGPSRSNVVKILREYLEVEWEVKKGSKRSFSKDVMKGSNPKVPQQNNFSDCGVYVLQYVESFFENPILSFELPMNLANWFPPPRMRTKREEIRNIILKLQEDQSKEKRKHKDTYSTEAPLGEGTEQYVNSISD

[3] = target: T3, Caspase-3 (Homo sapiens, UniProt P42574);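 also: Dose-response selectivity test against caspase-3 for candidate inhibitors of sentrin-specific proteases (SENPs)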
T3 sequence (P42574 whole entry): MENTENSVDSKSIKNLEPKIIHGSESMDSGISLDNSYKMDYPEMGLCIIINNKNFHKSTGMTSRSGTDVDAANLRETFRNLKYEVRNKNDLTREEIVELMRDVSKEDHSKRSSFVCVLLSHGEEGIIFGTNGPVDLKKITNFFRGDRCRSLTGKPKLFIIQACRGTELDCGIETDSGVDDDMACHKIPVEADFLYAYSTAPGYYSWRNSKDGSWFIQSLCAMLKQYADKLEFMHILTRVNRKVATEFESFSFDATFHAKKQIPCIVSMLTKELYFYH

[4] = target: T4, Sentrin-specific protease 8 (Homo sapiens, UniProt Q96LD8);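 also: luminescence read-out of SENP8 inhibition, dose-response confirmation following an ultra-high-throughput screen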
T4 sequence (Q96LD8 whole entry): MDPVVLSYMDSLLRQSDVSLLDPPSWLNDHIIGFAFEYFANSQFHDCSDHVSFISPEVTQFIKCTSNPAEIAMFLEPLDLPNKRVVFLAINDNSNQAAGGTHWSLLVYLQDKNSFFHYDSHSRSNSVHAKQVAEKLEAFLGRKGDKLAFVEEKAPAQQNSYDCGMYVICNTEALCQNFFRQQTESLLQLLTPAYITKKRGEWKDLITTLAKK

Measured: IC50

NC(=O)C1CCN(C2=C(Cl)C(=O)c3ccccc3C2=O)CC1
active: [1] 17.8 µM | [2] 5.84 µM | [3] 7.35 µM | [4] 8.88 µM

O=C(O)c1ccc(N/N=C/c2ccc(OC(=O)c3ccccc3Cl)cc2)cc1
active: [1] 3.74 µM | [2] 2.16 µM | [3] 14.8 µM | [4] 2.05 µM
